Data from publication PMC8037182, “Solvothermal Synthesis of Multiple Dihydropyrimidinones at a Time as Inhibitors of Eg5” (Molecules, 2021).

Legend:
T24 cell line = experiment: Cytotoxicity MTS assay, T24 cell line; type: cell-based; conditions: for OD490 Mean / OD490 Well 1 / OD490 Well 2 / OD490 Well 3: T24 cell line, first assay
Procedure: (§1) The positive compounds (IC50 < 100 μM) obtained from the primary Eg5 motor protein ATPase assay were tested for antiproliferative activity in vitro against Caco-2 cell line, Hela cell line, L929 cell line and T24 cell line by performing MTS assay. Cells were introduced into 96-well plates at a density of 1000 cells per well. After 24 h incubation, the cells were exposed with compounds at final concentrations ranging from 0.5 to 100 µM for 24 h. DMSO was used at a final concentration of 0.025% as blank control, monastrol was used as the positive control. Then 20 µL (CellTiter 96® AQueous One Solution Promega, Madison, WI, USA) reagent was added in each well. After 2 h at 37 °C in a 80% humidified, 5% CO2 atmosphere, the absorbance at 490 nm was recorded using a microplate reader (BIO-RAD iMark^TM). The results were obtained in three independent duplicate experiments. The primary data were shown in Supplementary Materials Tables S4–S7. The IC50 values for these compounds were calculated from a non-linear regression graph plotted between the percentage of cell viability and concentration with SPSS17.0 software.

Caco-2 cell line = experiment: Cytotoxicity MTS assay, Caco-2 cell line; type: cell-based; conditions: for OD490 Mean / OD490 Well 1 / OD490 Well 2 / OD490 Well 3: Caco-2 cell line
Procedure: as §1

CCOC(=O)c1[nH]c(C2NC(=O)NC(C)=C2C(=O)Nc2ccccc2OC)c(C(=O)OC)c1C (centres unmarked) [D3]
IC50 (T24 cell line; MTS assay, 24 h exposure): > 150 µM
OD490 Mean (T24 cell line; 0.5μM): 1.8317
OD490 Well 1 (T24 cell line; 0.5μM): 1.9267
OD490 Well 2 (T24 cell line; 0.5μM): 1.7284
OD490 Well 3 (T24 cell line; 0.5μM): 1.8399
OD490 Mean (T24 cell line; 1μM): 1.4215
OD490 Well 1 (T24 cell line; 1μM): 1.4512
OD490 Well 2 (T24 cell line; 1μM): 1.4430
OD490 Well 3 (T24 cell line; 1μM): 1.3702
OD490 Mean (T24 cell line; 10μM): 1.5897
OD490 Well 1 (T24 cell line; 10μM): 1.3957
OD490 Well 2 (T24 cell line; 10μM): 1.6776
OD490 Well 3 (T24 cell line; 10μM): 1.6957
OD490 Mean (T24 cell line; 25μM): 1.4932
OD490 Well 1 (T24 cell line; 25μM): 1.4267
OD490 Well 2 (T24 cell line; 25μM): 1.6194
OD490 Well 3 (T24 cell line; 25μM): 1.4336
OD490 Mean (T24 cell line; 50μM): 1.4228
OD490 Well 1 (T24 cell line; 50μM): 1.3624
OD490 Well 2 (T24 cell line; 50μM): 1.4440
OD490 Well 3 (T24 cell line; 50μM): 1.4620
OD490 Mean (T24 cell line; 100μM): 1.3750
OD490 Well 1 (T24 cell line; 100μM): 1.3903
OD490 Well 2 (T24 cell line; 100μM): 1.4568
OD490 Well 3 (T24 cell line; 100μM): 1.2780
OD490 Mean (Caco-2 cell line; 0.5μM, first assay): 0.6387
OD490 Well 1 (Caco-2 cell line; 0.5μM, first assay): 0.6262
OD490 Well 2 (Caco-2 cell line; 0.5μM, first assay): 0.6384
OD490 Well 3 (Caco-2 cell line; 0.5μM, first assay): 0.6515
OD490 Mean (Caco-2 cell line; 0.5μM, second assay): 0.7146
OD490 Well 1 (Caco-2 cell line; 0.5μM, second assay): 0.7283
OD490 Well 2 (Caco-2 cell line; 0.5μM, second assay): 0.7863
OD490 Well 3 (Caco-2 cell line; 0.5μM, second assay): 0.6291
OD490 Mean (Caco-2 cell line; 0.5μM, third assay): 0.6707
OD490 Well 1 (Caco-2 cell line; 0.5μM, third assay): 0.6256
OD490 Well 2 (Caco-2 cell line; 0.5μM, third assay): 0.6879
OD490 Well 3 (Caco-2 cell line; 0.5μM, third assay): 0.6985
OD490 Mean (Caco-2 cell line; 1μM, first assay): 0.6598
OD490 Well 1 (Caco-2 cell line; 1μM, first assay): 0.6405
OD490 Well 2 (Caco-2 cell line; 1μM, first assay): 0.6612
OD490 Well 3 (Caco-2 cell line; 1μM, first assay): 0.6777
OD490 Mean (Caco-2 cell line; 1μM, second assay): 0.6524
OD490 Well 1 (Caco-2 cell line; 1μM, second assay): 0.6596
OD490 Well 2 (Caco-2 cell line; 1μM, second assay): 0.7226
OD490 Well 3 (Caco-2 cell line; 1μM, second assay): 0.5749
OD490 Mean (Caco-2 cell line; 1μM, third assay): 0.7014
OD490 Well 1 (Caco-2 cell line; 1μM, third assay): 0.6954
OD490 Well 2 (Caco-2 cell line; 1μM, third assay): 0.6888
OD490 Well 3 (Caco-2 cell line; 1μM, third assay): 0.7201
OD490 Mean (Caco-2 cell line; 10μM, first assay): 0.6769
OD490 Well 1 (Caco-2 cell line; 10μM, first assay): 0.6754
OD490 Well 2 (Caco-2 cell line; 10μM, first assay): 0.6571
OD490 Well 3 (Caco-2 cell line; 10μM, first assay): 0.6982
OD490 Mean (Caco-2 cell line; 10μM, second assay): 0.7108
OD490 Well 1 (Caco-2 cell line; 10μM, second assay): 0.7146
OD490 Well 2 (Caco-2 cell line; 10μM, second assay): 0.7063
OD490 Well 3 (Caco-2 cell line; 10μM, second assay): 0.7114
OD490 Mean (Caco-2 cell line; 10μM, third assay): 0.7093
OD490 Well 1 (Caco-2 cell line; 10μM, third assay): 0.6912
OD490 Well 2 (Caco-2 cell line; 10μM, third assay): 0.7365
OD490 Well 3 (Caco-2 cell line; 10μM, third assay): 0.7003
OD490 Mean (Caco-2 cell line; 25μM, first assay): 0.6846
OD490 Well 1 (Caco-2 cell line; 25μM, first assay): 0.6410
OD490 Well 2 (Caco-2 cell line; 25μM, first assay): 0.7249
OD490 Well 3 (Caco-2 cell line; 25μM, first assay): 0.6880
OD490 Mean (Caco-2 cell line; 25μM, second assay): 0.6529
OD490 Well 1 (Caco-2 cell line; 25μM, second assay): 0.662
OD490 Well 2 (Caco-2 cell line; 25μM, second assay): 0.6871
OD490 Well 3 (Caco-2 cell line; 25μM, second assay): 0.6097
OD490 Mean (Caco-2 cell line; 25μM, third assay): 0.6888
OD490 Well 1 (Caco-2 cell line; 25μM, third assay): 0.6989
OD490 Well 2 (Caco-2 cell line; 25μM, third assay): 0.6784
OD490 Well 3 (Caco-2 cell line; 25μM, third assay): 0.6891
OD490 Mean (Caco-2 cell line; 50μM, first assay): 0.7773
OD490 Well 1 (Caco-2 cell line; 50μM, first assay): 0.7708
OD490 Well 2 (Caco-2 cell line; 50μM, first assay): 0.7874
OD490 Well 3 (Caco-2 cell line; 50μM, first assay): 0.7736
OD490 Mean (Caco-2 cell line; 50μM, second assay): 0.7093
OD490 Well 1 (Caco-2 cell line; 50μM, second assay): 0.7521
OD490 Well 2 (Caco-2 cell line; 50μM, second assay): 0.7258
OD490 Well 3 (Caco-2 cell line; 50μM, second assay): 0.6501
OD490 Mean (Caco-2 cell line; 50μM, third assay): 0.7169
OD490 Well 1 (Caco-2 cell line; 50μM, third assay): 0.6532
OD490 Well 2 (Caco-2 cell line; 50μM, third assay): 0.7354
OD490 Well 3 (Caco-2 cell line; 50μM, third assay): 0.7621
OD490 Mean (Caco-2 cell line; 100μM, first assay): 0.5588
OD490 Well 1 (Caco-2 cell line; 100μM, first assay): 0.5950
OD490 Well 2 (Caco-2 cell line; 100μM, first assay): 0.5357
OD490 Well 3 (Caco-2 cell line; 100μM, first assay): 0.5456
OD490 Mean (Caco-2 cell line; 100μM, second assay): 0.7013
OD490 Well 1 (Caco-2 cell line; 100μM, second assay): 0.7196
OD490 Well 2 (Caco-2 cell line; 100μM, second assay): 0.6757
OD490 Well 3 (Caco-2 cell line; 100μM, second assay): 0.7086
OD490 Mean (Caco-2 cell line; 100μM, third assay): 0.7231
OD490 Well 1 (Caco-2 cell line; 100μM, third assay): 0.7561
OD490 Well 2 (Caco-2 cell line; 100μM, third assay): 0.7145
OD490 Well 3 (Caco-2 cell line; 100μM, third assay): 0.6987
IC50 (Caco-2 cell line; MTS assay, 24 h exposure): > 150 µM
